In PubChem BioAssay AID1963854 (Molecular Pharmacology Branch, DTP, NCI, 2024):
Where “and” joins values, the source holds several entries; their conditions need not be identical. Identical values can stand only once.

System: 186277-243-T-J2-PDC complex spheroid viability
Assay: Anticancer human tumor 186277-243-T-J2-PDC patient-derived colon adenocarcinoma cell line growth inhibition [POLQ]
Conditions: for viability, T/C: stronger effect = lower value
Protocol: Multicellular complex tumor spheroid response to Polymerase (POL) inhibitors (novobiocin, ART-558, RP6685) in combination with a variety of drugs and investigational agents in selected tumor cell lines
The POL inhibitors (novobiocin, ART-558, and RP6685) were evaluated both individually and in combination with standard of care and investigational anticancer small molecules within a complex spheroid model of solid tumors. . Complex spheroids include a stromal component modeled by human endothelial cells (HUVEC) and fibroblasts modeled by human mesenchymal stem cells (MSCs). The concentration ranges selected for each drug and investigational agent were based upon clinically achievable concentrations if the clinical Cmax of the agent was known.
Compounds. The drugs and investigational agents: novobiocin (NSC847541), ART-558 (NSC835418), RP-6685 (NSC848927), peposertib (NSC802822), ceralasertib (NSC780249), elimusertib (NSC800525), camonsertib (NSC841442), AZD-1390 (NSC803789), olaparib (NSC753686), talazoparib (NSC767125), rucaparib (NSC756644), sotorasib (NSC818433), MRTX-1133 (NSC836407), SN-38 (NSC673596), topotecan (NSC609699), epotoside (NSC141540), doxorubicin (NSC123127), gemcitabine (NSC613327), 5-fluorouracil (NSC19893), paclitaxel (NSC125973), vemurafenib (NSC761431), MSA-2 (NSC828583), SN-011 (NSC837082), adavosertib (NSC754352), prexasertib (NSC758257), carboplatin (NSC241240) and oxaliplatin (NSC266046), were obtained from the National Cancer Institute (NCI) Developmental Therapeutics Program Chemical Repository (21). The FDA-approved anticancer drug set is available from the Developmental Therapeutics Program at https://dtp.cancer.gov/organization/dscb/obtaining/. […] The stock solutions were prepared in dimethyl sulfoxide (DMSO, Sigma-Aldrich, St. Louis, MO, cat. D2650), except for the platinum compounds which were prepared in saline (Quality Biological, Gaithersburg, MD, cat. 114-055-101), at 800-fold the tested concentration and stored at -70 degrees C prior to their use. All drugs and investigational agents were tested over a range starting from a high concentration at or near the clinical Cmax and decreasing in half-log increments. If the clinical Cmax for an agent had not been determined, the highest concentration tested was 10 microM, except for SN-38, which was tested at a high concentration of 1 microM.
Cell Culture. All cells were maintained in an incubator at 37 degrees C and 5% CO2 with 95% humidity. The PDC lines were cultured according to standard operating procedures established by the NCI PDMR (https://pdmr.cancer.gov). Table 3 of the manuscript, lists the cell lines along with the number of the three cell types plated to form the mct-spheroids and media for tumor cell growth. After thawing, all PDC lines, except 997537-175-T-J1-PDC and 415267-285-R-J2-PDC, were cultured in Matrigel-coated flasks prepared with a working solution of 1X Ham's F-12 nutrient mix, without supplementation (Thermo Fisher Scientific, cat. 11765054), 100 U/mL penicillin-streptomycin (Thermo Fisher Scientific, cat. 15140122), and 2.5% Matrigel (Corning Inc., Corning, NY, cat. 354248) for the first three passages. The two PDC lines 997537-175-T-J1-PDC and 415267-285-R-J2-PDC were cultured on uncoated flasks. The 857933-349-R-J2-PDC line was cultured in 6C/Colon 1B media containing advanced DMEM/F-12 (Thermo Fisher Scientific, cat. 12634028), 10 mM HEPES (Thermo Fisher Scientific, cat. 15630080), 1X GlutaMAX supplement (Thermo Fisher Scientific, cat. 35050061), 0.1 mg/mL primocin (InvivoGen, San Diego, CA, cat. ant-pm-2), 10% defined fetal bovine serum, heat inactivated (HyClone Laboratories Inc., Logan, UT, cat. SH30070.03HI), 50% L-WRN conditioned media (ATCC, cat. CRL-3276), 1.25 mM N-Acetyl-L-cysteine (Sigma-Aldrich, cat. A9165), 10 mM nicotinamide (Sigma-Aldrich, cat. N0636), 1X B-27 supplement (Thermo Fisher Scientific, cat. 17504044), 1X N-2 supplement (Thermo Fisher Scientific, cat. […]

[1] = curve of first compound, second compound 0.0316 µM
[2] = curve of first compound, second compound 0.1 µM
[3] = curve of first compound, second compound 0.316 µM
[4] = curve of first compound, second compound 1 µM
[5] = curve of first compound, second compound 3.16 µM
[6] = curve of first compound, second compound 10 µM
[7] = second compound 0.0316 µM, first compound 0.0316 µM
[8] = second compound 0.0316 µM, first compound 0.1 µM
[9] = second compound 0.0316 µM, first compound 0.316 µM
[10] = second compound 0.0316 µM, first compound 1 µM
[11] = second compound 0.0316 µM, first compound 3.16 µM
[12] = second compound 0.0316 µM, first compound 10 µM
[13] = second compound 0.1 µM, first compound 0.0316 µM
[14] = second compound 0.1 µM, first compound 0.1 µM
[15] = second compound 0.1 µM, first compound 0.316 µM
[16] = second compound 0.1 µM, first compound 1 µM
[17] = second compound 0.1 µM, first compound 3.16 µM
[18] = second compound 0.1 µM, first compound 10 µM
[19] = second compound 0.316 µM, first compound 0.0316 µM
[20] = second compound 0.316 µM, first compound 0.1 µM
[21] = second compound 0.316 µM, first compound 0.316 µM
[22] = second compound 0.316 µM, first compound 1 µM
[23] = second compound 0.316 µM, first compound 3.16 µM
[24] = second compound 0.316 µM, first compound 10 µM
[25] = second compound 1 µM, first compound 0.0316 µM
[26] = second compound 1 µM, first compound 0.1 µM
[27] = second compound 1 µM, first compound 0.316 µM
[28] = second compound 1 µM, first compound 1 µM
[29] = second compound 1 µM, first compound 3.16 µM
[30] = second compound 1 µM, first compound 10 µM
[31] = second compound 3.16 µM, first compound 0.0316 µM
[32] = second compound 3.16 µM, first compound 0.1 µM
[33] = second compound 3.16 µM, first compound 0.316 µM
[34] = second compound 3.16 µM, first compound 1 µM
[35] = second compound 3.16 µM, first compound 3.16 µM
[36] = second compound 3.16 µM, first compound 10 µM
[37] = second compound 10 µM, first compound 0.0316 µM
[38] = second compound 10 µM, first compound 0.1 µM
[39] = second compound 10 µM, first compound 0.316 µM
[40] = second compound 10 µM, first compound 1 µM
[41] = second compound 10 µM, first compound 3.16 µM
[42] = second compound 10 µM, first compound 10 µM
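Note: spheroids exposed to compounds for seven days.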
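Throughout, for viability, T/C: 100% = DMSO vehicle control viability.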

## C#Cc1c(F)ccc2cc(O)cc(-c3ncc4c(N5CC6CCC(C5)N6)nc(OCC56CCCN5CC(F)C6)nc4c3F)c12 (stereo not drawn) + Nc1ccc(C#CCN(C(=O)Cc2ncc(C(F)(F)F)cc2C(F)(F)F)c2ccc(F)cc2)nn1
[1]
  IC50: 0.315 µM
[2]
  IC50: 0.264 µM
[3]
  IC50: 0.262 µM
[4]
  IC50: 0.288 µM
[5]
  IC50: 0.178 µM
[6]
  IC50: 0.122 µM
[7]
  viability, T/C: 91.2%
[8]
  viability, T/C: 96.2%
[9]
  viability, T/C: 48.5%
[10]
  viability, T/C: 25.6%
[11]
  viability, T/C: 15.5%
[12]
  viability, T/C: 10.8%
[13]
  viability, T/C: 116%
[14]
  viability, T/C: 93.6%
[15]
  viability, T/C: 40.6%
[16]
  viability, T/C: 22.1%
[17]
  viability, T/C: 19.1%
[18]
  viability, T/C: 10.1%
[19]
  viability, T/C: 83.5%
[20]
  viability, T/C: 97.2%
[21]
  viability, T/C: 42%
[22]
  viability, T/C: 27.4%
[23]
  viability, T/C: 16.1%
[24]
  viability, T/C: 10.7%
[25]
  viability, T/C: 103%
[26]
  viability, T/C: 91%
[27]
  viability, T/C: 44.2%
[28]
  viability, T/C: 22.3%
[29]
  viability, T/C: 12.9%
[30]
  viability, T/C: 8.94%
[31]
  viability, T/C: 87.5%
[32]
  viability, T/C: 70.9%
[33]
  viability, T/C: 28.8%
[34]
  viability, T/C: 15.3%
[35]
  viability, T/C: 12.5%
[36]
  viability, T/C: 8.73%
[37]
  viability, T/C: 106%
[38]
  viability, T/C: 55.2%
[39]
  viability, T/C: 25%
[40]
  viability, T/C: 15%
[41]
  viability, T/C: 13%
[42]
  viability, T/C: 8.18%

## O=c1[nH]cc(F)c(=O)[nH]1
Compound 0.0316 µM
  viability, T/C: 88.9% and 104% and 92.7%
Compound 0.1 µM
  viability, T/C: 89.7% and 103% and 117%
Compound 0.316 µM
  viability, T/C: 97.9% and 120% and 108%
Compound 1 µM
  viability, T/C: 98% and 95% and 112%
Compound 3.16 µM
  viability, T/C: 77% and 103% and 69.6%
Compound 10 µM
  viability, T/C: 48.4% and 63.8% and 49.9%
Curve of compound
  IC50: 9.37 µM and > 10 µM

## C=CCn1c(=O)c2cnc(Nc3ccc(N4CCN(C)CC4)cc3)nc2n1-c1cccc(C(C)(C)O)n1
Compound 0.00316 µM
  viability, T/C: 95.7% and 86.8% and 99.2%
Compound 0.01 µM
  viability, T/C: 96% and 97.5% and 95.8%
Compound 0.0316 µM
  viability, T/C: 97.8% and 104% and 94.2%
Compound 0.1 µM
  viability, T/C: 93.9% and 91.6% and 113%
Compound 0.316 µM
  viability, T/C: 13.8% and 27.6% and 28.5%
Compound 1 µM
  viability, T/C: 7.74% and 14.5% and 12.9%
Curve of compound
  IC50: 0.188 µM and 0.211 µM and 0.224 µM

## CNCc1ccc(-c2[nH]c3cc(F)cc4c3c2CCNC4=O)cc1 + Cc1cccc(N(C)C(=O)C2C(O)CCN2c2nc(C)cc(C(F)(F)F)c2C#N)c1
[1]
  IC50: > 10 µM
[2]
  IC50: > 10 µM
[3]
  IC50: > 10 µM
[4]
  IC50: > 10 µM
[5]
  IC50: > 10 µM
[6]
  IC50: > 10 µM
[7]
  viability, T/C: 105%
[8]
  viability, T/C: 97.5%
[9]
  viability, T/C: 104%
[10]
  viability, T/C: 102%
[11]
  viability, T/C: 102%
[12]
  viability, T/C: 97.5%
[13]
  viability, T/C: 81.2%
[14]
  viability, T/C: 98.9%
[15]
  viability, T/C: 107%
[16]
  viability, T/C: 108%
[17]
  viability, T/C: 115%
[18]
  viability, T/C: 91.1%
[19]
  viability, T/C: 103%
[20]
  viability, T/C: 109%
[21]
  viability, T/C: 94.8%
[22]
  viability, T/C: 105%
[23]
  viability, T/C: 93.8%
[24]
  viability, T/C: 91.7%
[25]
  viability, T/C: 102%
[26]
  viability, T/C: 105%
[27]
  viability, T/C: 95.2%
[28]
  viability, T/C: 95%
[29]
  viability, T/C: 105%
[30]
  viability, T/C: 76.9%
[31]
  viability, T/C: 100%
[32]
  viability, T/C: 108%
[33]
  viability, T/C: 107%
[34]
  viability, T/C: 105%
[35]
  viability, T/C: 115%
[36]
  viability, T/C: 78.4%
[37]
  viability, T/C: 106%
[38]
  viability, T/C: 98.4%
[39]
  viability, T/C: 107%
[40]
  viability, T/C: 90.1%
[41]
  viability, T/C: 94.2%
[42]
  viability, T/C: 69.4%
